# Patent US20150082479A1, “CHEMICAL SELECTION OF RESISTANT GAMETES OF PLANTS IN THE FIELD” (PIONEER HI BRED INTERNATIONAL INC, priority 2008, published 2015)
# Legend:
# Type in all cases: in vivo, maize
# non-transgenic gametes = assay: Field application of herbicide to hemizygous glyphosate resistant plants at V12-V19; crosses, progeny seedlings sprayed, survivors counted, chi square of segregation ratios
# Method: The elimination of non-transgenic gametes was also tested at the V12-V19 stages. Meiosis sorted the transgene of a diploid hemizygous microsporophyte or macrosporophyte into one-half of the gametes. The resulting transgenic construct contained a gene conferring plant resistance or tolerance to a specific herbicide, namely glyphosate. Application of the herbicide treatments at various growth phases eliminated gametes lacking the transgenic construct.
# Glyphosate treatments included: V12, V17, V19, V15+V17, and V17+V19. Each application, included splits 3 quarts/A. Only resistant plants were sprayed. Glufosinate treatments included: V12, V17, V18, V19, V15+V17, and V17+V19. Each application, included splits 1.5 quarts/A. Only resistant plants were sprayed.
# Pollination of the sprayed resistant plants included: 4 selfed, 4 pollinations from unsprayed resistant, 4 pollinations from susceptible. Pollination of the unsprayed resistant plants included: 4 selfed, 4 pollinations from sprayed resistant, 4 pollinations from susceptible. […]
# Survivors were counted and chi square analysis performed to determine whether segregation ratios deviated from the null hypothesis (e.g., 75:25 resistant phenotype for selfs or crosses within the resistant hemizygous hybrids, 50:50 resistant phenotype for crosses between resistant and susceptible hybrids, or 100% mortality for susceptible selfed seed).
# wild type pollen = assay: Treated heterozygous plants crossed onto wild type inbred; progeny leaf dip test (rag doll, 2% v/v RoundUp Ultra)
# Source text: (§1) Four row plots of a heterozygous inbred for glyphosate resistance were established. At the V10, V12, V14 and V10+V14 stages of plant development, glyphosate was broadcast to the center two rows. The WeatherMax glyphosate formulation was applied at 0, 1.6 and 3.2 l/Ha, such rates corresponding to 0, 1 and 2 times the normal commercial rates in corn production. To assure there was no glyphosate drift on the non-treated controls, non-treated plants were separated by 16 border rows.
# (§2) A series of crosses were made from the treated plants to identify the gamete rouging effects of glyphosate on both pollen and ovules. To characterize the effects on pollen, heterozygous plants treated with glyphosate were crossed onto a wild type inbred. To characterize the effect of glyphosate on ovules, non-treated wild type pollen was crossed to heterozygous plants treated with glyphosate. Finally, the treated heterozygous plants were selfed and tested for zygosity via quantitative PCR.
# (§3) The progeny of the various crosses from Example 2 were evaluated by two methods. In the first method, 25 seeds per replication (4 replications in total) were planted into rag dolls and grown at 25° C. in darkness four days. After this time, the rag dolls were transferred to a greenhouse to allow the shoots to turn green. After four days in the greenhouse, seedlings for each rag doll were dipped in a 2% v/v solution of RoundUp Ultra (concentration corresponding to common concentrations in spray applications at the field level). After one week, individual plants were rated as normal, dead or abnormal. Normal plants were assumed to carry the gene for tolerance to glyphosate, dead plants were assumed to be wild type.
# The crosses separated the effects of glyphosate on pollen and ovule gametes. To separate effects on pollen, heterozygous plants were sprayed with glyphosate and pollen collected from treated plants was crossed onto homozygous wild type plants. […]
# wild type ovules = assay: Non-treated wild type pollen crossed to treated heterozygous plants; progeny leaf dip test
# Source text: as §1, §2, §3
# The effects of glyphosate on wild type ovules were less pronounced than for pollen gametes (as expressed in FIG. 8). In the control treatment, untreated heterozygous plants were pollinated with homozygous wild type pollen. Expected segregation ratios for the progeny of this cross would be 50% resistant and 50% susceptible. Here, the control progeny segregated at 54% resistant, statistically equal to the expected ratio of 50%. […] At the highest rate of glyphosate, the segregation of progeny was clearly disturbed. High rates applied at the V14 stage produced progeny nearly 100% resistant, while applications made before V14 were intermediate.
# wild type gametes [1] = assay: Treated heterozygous plants selfed; progeny leaf dip test; details: all treatments except V12 at the lowest rate, non-treated 75% (FIG. 9)
# Source text: as §1, §2
# The progeny of the various crosses from Example 2 were evaluated by two methods. In the first method, 25 seeds per replication (4 replications in total) were planted into rag dolls and grown at 25° C. in darkness four days. After this time, the rag dolls were transferred to a greenhouse to allow the shoots to turn green. […]
# wild type gametes [2] = assay: Treated hemizygous plants selfed; progeny scored for level of zygosity via QtPCR
# Source text: as §2
# In the second method of analysis, the glyphosate resistant selfed plants were grown in the field and leaf punched at the V8 stage of development. Leaf tissues were then frozen and scored for their level of zygosity according to standard PCR protocols for glyphosate resistance. The data from the progeny tests was arc sine transformed and submitted to a common analysis of variance. Since the F-test for overall treatments was highly significant, tests of significance between the controls and the various treatments were also conducted.
# Plants hemizygous for glyphosate resistance were sprayed with glyphosate and then selfed. The progeny were then scored for level of zygosity via QtPCR. While the results from PCR corroborate data from the leaf dip assays, the magnitude of the response is less (as expressed in FIG. 10).
compound,measurement,setting,value
O=C(O)CNCP(=O)(O)O [glyphosate],elimination of non-transgenic gametes,"non-transgenic gametes; application at V12, 3 quarts/A, glyphosate resistant plants (FIG. 1)",eliminated most non-transgenic female and male gametes
same,elimination of non-transgenic gametes,"non-transgenic gametes; application at V15 or later, 3 quarts/A, glyphosate resistant plants (FIGS. 2-5)",primarily eliminated non-transgenic female gametes
same,effect on wild type pollen: dependence on rate or time of application,"wild type pollen; 1.6 vs 3.2 l/Ha, V10, V12, V14, V10+V14",not affected by rate or time of application
same,rouging of wild type pollen (leaf dip test),"wild type pollen; V10, V12, V14, V10+V14, 1.6 and 3.2 l/Ha (FIG. 7)",highly effective in rouging wild type pollen
same,progeny resistant to glyphosate,"wild type pollen; treated plants crossed to wild type ovules, all rates and timings, expected 50% if no effect (FIG. 7)",~100%
same,progeny resistant to glyphosate,"wild type ovules; high rates applied at V14, expected 50% if no effect (FIG. 8)",~100%
same,progeny resistant to glyphosate,"wild type ovules; highest rate, applications made before V14 (FIG. 8)",intermediate
same,segregation of progeny,"wild type ovules; treated at V10 and V12 at the lowest rate, pollinated with wild type pollen (FIG. 8)",segregated as expected if glyphosate had no affect on wild type ovules
same,progeny resistant to glyphosate,wild type ovules; two pass program V10+V14 (FIG. 8),~100%
same,progeny resistant to glyphosate,wild type gametes [1],~100%
same,ratio of homozygous wild type plants in selfed progeny (QtPCR),wild type gametes [2]; sprayed then selfed (FIG. 10),significantly reduced the ratio of homozygous wild type plants
same,percentage of homozygous glyphosate resistant plants in selfed progeny (QtPCR),wild type gametes [2]; two pass applications at the highest rates (FIG. 10),produced the greatest percentage of homozygous glyphosate resistant plants
